Reference: patent US9150577B2, “Heterocyclic compounds containing an indole core” (Boehringer Ingelheim International GmbH, priority 2009, dated 2015)

Target: Human RSK2 (Homo sapiens (Human), UniProt P51812)
Test: Human RSK2 assay (Kinase Glo Plus, residual ATP);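 also: recombinant human RSK2 phosphorylating a substrate peptide, 90 min at 28 °C, leftover ATP read by luminescence, RLU scaled between no-kinase background and uninhibited kinase controls, 4-parameter fit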
Type: biochemical

Sequence of Human RSK2 (P51812 whole entry): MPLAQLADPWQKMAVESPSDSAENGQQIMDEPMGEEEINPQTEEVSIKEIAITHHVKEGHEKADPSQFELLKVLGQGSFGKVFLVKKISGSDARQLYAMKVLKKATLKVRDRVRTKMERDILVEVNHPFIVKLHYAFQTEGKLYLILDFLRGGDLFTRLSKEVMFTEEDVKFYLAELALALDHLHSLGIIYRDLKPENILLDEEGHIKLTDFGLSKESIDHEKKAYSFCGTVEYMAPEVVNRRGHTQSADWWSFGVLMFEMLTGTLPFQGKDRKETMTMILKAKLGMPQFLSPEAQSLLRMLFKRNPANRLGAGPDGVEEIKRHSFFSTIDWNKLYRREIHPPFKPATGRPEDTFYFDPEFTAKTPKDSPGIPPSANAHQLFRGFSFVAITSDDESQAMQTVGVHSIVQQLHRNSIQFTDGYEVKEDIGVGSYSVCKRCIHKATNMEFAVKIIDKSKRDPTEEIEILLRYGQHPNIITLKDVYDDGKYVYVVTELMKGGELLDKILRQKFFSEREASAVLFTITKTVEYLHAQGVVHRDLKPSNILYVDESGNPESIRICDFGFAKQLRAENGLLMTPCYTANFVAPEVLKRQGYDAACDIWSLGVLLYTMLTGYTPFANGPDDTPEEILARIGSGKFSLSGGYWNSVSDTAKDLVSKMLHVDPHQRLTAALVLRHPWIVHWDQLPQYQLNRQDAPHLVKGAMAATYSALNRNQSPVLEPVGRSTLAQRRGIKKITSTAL

SMILES: CC(C)(CO)n1c(NC(=O)c2ccc3cc4n(c3c2)CCCNC4=O)nc2ccccc21 [Example 66, N-[1-(1-hydroxy-2-methylpropan-2-yl)-1H-benzimidazol-2-yl]-1-oxo-2,3,4,5-tetrahydro-1H-[1,4]diazepino[1,2-a]indole-8-carboxamide]
- IC50: 610 nM

SMILES: CC(C)n1c(NC(=O)c2ccc3cc4n(c3c2)[C@H](C)CNC4=O)nc2ccccc21 [Example 68, (4R)-4-methyl-1-oxo-N-[1-(propan-2-yl)-1H-benzimidazol-2-yl]-1,2,3,4-tetrahydropyrazino[1,2-a]indole-7-carboxamide]
- IC50: 1.9 nM

SMILES: CC(C)n1c(NC(=O)c2ccc3cc4n(c3c2)[C@@H](C)CNC4=O)nc2ccccc21 [Example 69, (4S)-4-methyl-1-oxo-N-[1-(propan-2-yl)-1H-benzimidazol-2-yl]-1,2,3,4-tetrahydropyrazino[1,2-a]indole-7-carboxamide]
- IC50: 21 nM

SMILES: CC(C)n1c(NC(=O)c2ccc3cc4n(c3c2)C(C)(C)CNC4=O)nc2ccccc21 [Example 73, 4,4-dimethyl-1-oxo-N-[1-(propan-2-yl)-1H-benzimidazol-2-yl]-1,2,3,4-tetrahydropyrazino[1,2-a]indole-7-carboxamide]
- IC50: 2 nM

SMILES: CC(C)n1c(NC(=O)c2ccc3cc4n(c3c2)C(C)CNC4=O)nc2ccccc21 (centres unmarked) [Example 74, 4-methyl-1-oxo-N-[1-(propan-2-yl)-1H-benzimidazol-2-yl]-1,2,3,4-tetrahydropyrazino[1,2-a]indole-7-carboxamide]
- IC50: 7.3 nM

SMILES: O=C(Nc1nc2ccccc2n1C1CCCC1)c1ccc2cc3n(c2c1)CCCNC3=O [Example 75, N-(1-cyclopentyl-1H-benzimidazol-2-yl)-1-oxo-2,3,4,5-tetrahydro-1H-[1,4]diazepino[1,2-a]indole-8-carboxamide]
- IC50: 25 nM

SMILES: CN1CCC(n2c(NC(=O)c3ccc4cc5n(c4c3)CCCNC5=O)nc3ccccc32)CC1 [Example 77, N-[1-(1-methylpiperidin-4-yl)-1H-benzimidazol-2-yl]-1-oxo-2,3,4,5-tetrahydro-1H-[1,4]diazepino[1,2-a]indole-8-carboxamide]
- IC50: 14 nM

SMILES: CC(=O)N1CCC(n2c(NC(=O)c3ccc4cc5n(c4c3)CCCNC5=O)nc3ccccc32)CC1 [Example 78, N-[1-(1-acetylpiperidin-4-yl)-1H-benzimidazol-2-yl]-1-oxo-2,3,4,5-tetrahydro-1H-[1,4]diazepino[1,2-a]indole-8-carboxamide]
- IC50: 58 nM

SMILES: CCn1c(NC(=O)c2ccc3cc4n(c3c2)C(C)(C)CNC4=O)nc2ccccc21 [Example 82, N-(1-ethyl-1H-benzimidazol-2-yl)-4,4-dimethyl-1-oxo-1,2,3,4-tetrahydropyrazino[1,2-a]indole-7-carboxamide]
- IC50: 0.25 nM

SMILES: CCn1c(NC(=O)c2ccc3cc4n(c3c2)C(C)CNC4=O)nc2ccccc21 (centres unmarked) [Example 83, N-(1-ethyl-1H-benzimidazol-2-yl)-4-methyl-1-oxo-1,2,3,4-tetrahydropyrazino[1,2-a]indole-7-carboxamide]
- IC50: 0.63 nM

SMILES: CN(C)CC(C)(C)Cn1c(NC(=O)c2ccc3cc4n(c3c2)CCCNC4=O)nc2ccccc21 [Example 84, N-{1-[3-(dimethylamino)-2,2-dimethylpropyl]-1H-benzimidazol-2-yl}-1-oxo-2,3,4,5-tetrahydro-1H-[1,4]diazepino[1,2-a]indole-8-carboxamide]
- IC50: 30 nM

SMILES: CC(C)(O)Cn1c(NC(=O)c2ccc3cc4n(c3c2)CCCNC4=O)nc2ccccc21 [Example 85, N-[1-(2-hydroxy-2-methylpropyl)-1H-benzimidazol-2-yl]-1-oxo-2,3,4,5-tetrahydro-1H-[1,4]diazepino[1,2-a]indole-8-carboxamide]
- IC50: 5.4 nM

SMILES: CC(C)(O)Cn1c(NC(=O)c2ccc3cc4n(c3c2)CC(C)(C)CNC4=O)nc2ccccc21 [Example 86, N-[1-(2-hydroxy-2-methylpropyl)-1H-benzimidazol-2-yl]-4,4-dimethyl-1-oxo-2,3,4,5-tetrahydro-1H-[1,4]diazepino[1,2-a]indole-8-carboxamide]
- IC50: 5.9 nM

SMILES: O=C(Nc1nc2ccccc2n1CC(F)(F)F)c1ccc2cc3n(c2c1)CCCNC3=O [Example 87, 1-oxo-N-[1-(2,2,2-trifluoroethyl)-1H-benzimidazol-2-yl]-2,3,4,5-tetrahydro-1H-[1,4]diazepino[1,2-a]indole-8-carboxamide]
- IC50: 4.8 nM

SMILES: CN1CCC(Cn2c(NC(=O)c3ccc4cc5n(c4c3)CCCNC5=O)nc3ccccc32)CC1 [Example 88, N-{1-[(1-methylpiperidin-4-yl)methyl]-1H-benzimidazol-2-yl}-1-oxo-2,3,4,5-tetrahydro-1H-[1,4]diazepino[1,2-a]indole-8-carboxamide]
- IC50: 21 nM

SMILES: O=C(Nc1nc2ccccc2n1CCc1ccccn1)c1ccc2cc3n(c2c1)CCCNC3=O [Example 89, 1-oxo-N-{1-[2-(pyridin-2-yl)ethyl]-1H-benzimidazol-2-yl}-2,3,4,5-tetrahydro-1H-[1,4]diazepino[1,2-a]indole-8-carboxamide]
- IC50: 22 nM

SMILES: CN(C)CCCn1c(NC(=O)c2ccc3cc4n(c3c2)CC2(CCOCC2)CNC4=O)nc2ccccc21 [Example 95, N-{1-[3-(dimethylamino)propyl]-1H-benzimidazol-2-yl}-1-oxo-2,2′,3,3′,5′,6′-hexahydro-1H-spiro[1,4-diazepino[1,2-a]indole-4,4′-pyran]-8-carboxamide]
- IC50: 16 nM

SMILES: CN(C)CCCn1c(NC(=O)c2ccc3cc4n(c3c2)CC2(CCC2)CNC4=O)nc2ccccc21 [Example 97, N-{1-[3-(dimethylamino)propyl]-1H-benzimidazol-2-yl}-1′-oxo-2′,3′-dihydro-1′H-spiro[cyclobutane-1,4′-[1,4]diazepino[1,2-a]indole]-8′-carboxamide]
- IC50: 11 nM

SMILES: CN(C)CCCn1c(NC(=O)c2ccc3cc4n(c3c2)C(C)(C)CNC4=O)nc2ccccc21 [Example 98, N-{1-[3-(dimethylamino)propyl]-1H-benzimidazol-2-yl}-4,4-dimethyl-1-oxo-1,2,3,4-tetrahydropyrazino[1,2-a]indole-7-carboxamide]
- IC50: 0.38 nM

SMILES: CC1CNC(=O)c2cc3ccc(C(=O)Nc4nc5ccccc5n4CCCN(C)C)cc3n21 (centres unmarked) [Example 100, N-{1-[3-(dimethylamino)propyl]-1H-benzimidazol-2-yl}-4-methyl-1-oxo-1,2,3,4-tetrahydropyrazino[1,2-a]indole-7-carboxamide]
- IC50: 1.3 nM

SMILES: CC1CNC(=O)c2cc3ccc(C(=O)Nc4nc5ccccc5n4CCCN(C)C)cc3n2C1 (centres unmarked) [Example 101, N-{1-[3-(dimethylamino)propyl]-1H-benzimidazol-2-yl}-4-methyl-1-oxo-2,3,4,5-tetrahydro-1H-[1,4]diazepino[1,2-a]indole-8-carboxamide]
- IC50: 13 nM

SMILES: CN(C)CCn1c(NC(=O)c2ccc3cc4n(c3c2)CCCNC4=O)nc2ccccc21 [Example 103, N-{1-[2-(dimethylamino)ethyl]-1H-benzimidazol-2-yl}-1-oxo-2,3,4,5-tetrahydro-1H-[1,4]diazepino[1,2-a]indole-8-carboxamide]
- IC50: 23 nM

SMILES: O=C(Nc1nc2ccccc2n1CCN1CCOCC1)c1ccc2cc3n(c2c1)CCCNC3=O [Example 104, N-{1-[2-(morpholin-4-yl)ethyl]-1H-benzimidazol-2-yl}-1-oxo-2,3,4,5-tetrahydro-1H-[1,4]diazepino[1,2-a]indole-8-carboxamide]
- IC50: 54 nM
